Measurements: patent US12544354B2 (RIKEN, priority 2019, dated 2026)

Key:
[1] = system: mitochondrial permeability transition pore (mPTP); assay: mPTP-opening inhibitory activity test (calcium retention capacity, CRC) in mitochondria isolated from mouse brain; assay type: biochemical; conditions: for mPTP-Opening inhibitory activity at 1.0 μM compound concentration CRC/CRC (DMSO): mitochondria from C57B6J mouse brain, ratio of calcium required for mPTP-opening with compound vs DMSO control
Experimental: In this test, inhibitory effects of mPTP in mitochondria isolated from the brain were evaluated.
The mPTP-opening inhibitory activity and efficacy of test compounds are determined by evaluating inhibitory potency thereof against opening of mPTP formed of inner and outer mitochondrial membranes, by in-vitro assay described later.
The animal was humanely euthanized by cervical dislocation, and the brain was excised out. The brain excised out was put in an isolation buffer (280 mM sucrose, 10 mM 3-morpholinopropanesulfonic acid (MOPS), 1 mM ethylenediamine tetraacetic acid dipotassium salt (EDTA-2K), pH 7.2) cooled in ice. The brain was rinsed with the buffer cooled in ice and cut by scissors in the buffer put in a beaker placed on ice. The cut pieces were transferred to a Dounce glass homogenizer. The buffer was exchanged with an isolation buffer containing 12% Percoll, and the cut pieces were homogenized. The cut pieces were homogenized four times by use of a loose pestle and 8 times by use of a tight pestle while vertically rotating. The homogenate was gently overlaid on the layer formed of two portions different in density of Percoll (26%, 40%) in 50 ml-centrifuge tubes, which were then spun by a centrifuge (HITACHI CR22N, rotor R20A2) maintained at 4° C. at 30700×g for 5 minutes. The intermediate layer between the 26% layer and the 40% layer was carefully sucked by use of a 23 G needle, added in an isolation buffer (24 ml) previously cooled in ice, and spun by a centrifuge at 16700×g to allow mitochondria to precipitate as a pellet. The supernatant was gently discarded and the mitochondria was suspended. The amount of the mitochondrial suspension was measured and an aliquot of 20 μl was taken for determining protein concentration. To the mitochondrial suspension, 10 mg/ml BSA ([…]) was added and further an isolation buffer was added up to a volume of 1.2 ml (final concentration 1 mg/mL). The suspension was transferred to 2.0 ml tubes and then centrifuged. The supernatant was discarded and mitochondrial pellets were obtained and stored in ice. The protein amount of mitochondria was measured in accordance with the Bradford method.
To mitochondrial pellets isolated, a measurement buffer (210 mM sucrose, 20 mM potassium chloride, 3 mM glycylglycine and 1 mM potassium dihydrogen phosphate) containing a fluorescent calcium indicator, calcium green-5N (200 nM), was added to as to obtain a concentration of 150 μg/ml. In this manner, a mitochondrial suspension was prepared. Calcium green, which binds to calcium and emits fluorescence, is used as a probe for quantification. When calcium green is added to a mitochondrial suspension, the presence of calcium in the external fluid thereof can be detected. The mitochondrial suspension prepared by suspending mitochondria with the measurement buffer containing 400 nM calcium green was added in wells of a 96 well plate. To predetermined wells, a measurement buffer containing 40 mM glutamic acid, 4 mM malic acid and a double-concentration of test compound was added to prepare a mitochondrial suspension of 100 μl/well (final concentration: 20 mM glutamic acid, 2 mM malic acid). To the mitochondrial suspension in the wells of the 96 well plate, calcium was continuously added dropwise (10 μl of 117 μM CaCl2) was added in a rate of 100 μl/well, final concentration 11.7 μM), and the fluorescence value reflecting the amount of extramitochondrial calcium was determined ([…]). The measurement was carried out by a functional drug screening system, FDSS3000 (Hamamatsu Photonics K. K.). Incubation at 30° C. and shaking of the well plate were carried out by devices equipped in the system. Calcium (CaCl2)) was added at intervals of one minute in accordance with the program of FDSS3000 software.

PC12 cells = assay: Cell death inhibitory activity test: glutamic acid-induced cell death of PC12 cells (MTS assay); assay type: cell-based, rat; conditions: test compound 1, 3, 10 or 30 μM, added 24 h before glutamic acid; cell viability by MTS 48 h later
From the text: Simultaneously when mitochondria take up calcium, the membrane potential dissipates and mPTP opens. Physiologically, hydrogen peroxide generates in the mitochondrial respiratory chain with opening of mPTP and may further produce a damage to not only mitochondria but also cells. […] Oxidative stress ascribed to hydrogen peroxide may cause cell damage downstream of Ca uptake. In the test, the relationship between mPTP-opening inhibitory effect on cells and cell death was studied by using rat adrenal pheochromocytoma-derived PC12 cells.
The PC12 cells used in the test are derived from rat adrenal pheochromocytoma but are differentiated into sympathetic neurons by a nerve growth factor, and known to cause cell death in a glutamic acid concentration dependent manner (Pereira C F, Oliveira, R, Neuroscience Research, vol. 37(3), p. 227-236, 2000, Oxidative glutamate toxicity involves mitochondrial dysfunction and perturbation of intracellular Ca^2+ homeostasis).
A growth medium (composition: Dulbecco modified MEM culture medium (Gibco 11885-084) containing 100 units of penicillin, 100 μg/mL streptomycin (Gibco 15-140-122), 2.5% inactivated fetal bovine serum (Gibco 10437-028) and 2.5% inactivated horse serum (Gibco 16050-130)) were prepared. PC12 cells were cultured in a culture dish (diameter: 100 mm, Corning 353003) containing 10 ml of the growth medium. PC12 cells cryopreserved were thawed, cultured in the growth medium for at least one week and used in the test. PC12 cells were removed with 0.25% trypsin-1 mM EDTA and subcultured. The following experiments were all carried out at 37° C. by a CO2 incubator in an atmosphere containing 5% CO2. […]
After addition of MTS for CellTiter 96 ® AQueous One Solution Cell Proliferation Assay (Promega G3580)), the microplate was placed in a CO2 incubator and incubation was carried out for 4 hours. Absorbance of individual wells at a wavelength of 490 nm was measured by a spectrophotometer (SpectraMax i3 manufactured by Molecular Devices) with 700 nm used as a reference wavelength. A cell viability was calculated in accordance with the following expression (1) based on the absorbance obtained. Note that, to reduce background non-specific absorption due to excessive cell residue, culture medium and others, the obtained absorbance data were corrected based on the absorbance at a reference wavelength of 700 nm. […] Cell viability (%)=[(Abs−Abm)/(Abc−Abm)]×100 Expression (1) • Abs: Absorbance of sample (well containing cells, glutamic acid-added medium and MTS solution) • Abc: Absorbance of negative control (well containing cells, control medium and MTS solution) • Abm: Absorbance of blank (well containing control medium and MTS solution) (Suppression of Cell Death in the Presence of Test Compound) […]

[2] = system: local cerebral ischemia mouse model (pMCA-O); assay: Suppression test for cell death caused by cerebral ischemia: local cerebral ischemia mouse model by permanent middle cerebral artery occlusion (pMCA-O); conditions: mice, 100 mg/kg intraperitoneal
Experimental: In the test, to evaluate the action of test compounds to protect cells from cell death in vivo, a local cerebral ischemia mouse model was prepared by permanent middle cerebral artery occlusion (pMCA-O) and actions of test compounds to protect the cells at a brain injury site one day after occlusion were examined. Note that, for preparing a permanent middle cerebral artery occlusion model, C57BL/6JJmsSlc was used.
As the solvent, dimethyl sulfoxide (DMSO: FUJIFILM Wako Pure Chemical Corporation), polyethylene glycol (PEG400: FUJIFILM Wako Pure Chemical Corporation) and phosphate buffered saline (PBS: FUJIFILM Wako Pure Chemical Corporation) were used. The final concentrations of DMSO, PEG400 and PBS were set to be 15%, 50% and 35%, respectively. […]
One day after cerebral ischemia, the head of each of the mice was removed under anesthesia with 2% isoflurane and the whole brain was carefully excised out. […] These brain sections were stained in physiological saline containing 10 mL of 2% 2,3,5-triphenyl tetrazolium chloride (TTC) (manufactured by Hayashi Pure Chemical Ind., Ltd.) for 30 minutes (Bederson, J B et al., Stroke, 1986, vol. 17, p. 1304-1308, Evaluation of 2,3,5-triphenyltetrazolium chloride as a stain for detection and quantification of experiment a cerebral Infarction in rats). […]
The size of a brain injury site was determined as follows.

SMILES | mPTP-Opening inhibitory activity at 1.0 μM compound concentration CRC/CRC (DMSO) [1] | protection of PC12 cells from cell death induced by glutamic acid (FIG. 4) (PC12 cells) | also measured
C[C@@]12OC(=O)[C@@H](C(=O)c3c(O)cccc31)[C@@H]2Cc1c(O)c(O)c(C(N)=O)c(O)c1O [Compound I-2, 2,3,5,6-tetrahydroxy-4-(((1S,4R,10S)-6-hydroxy-1-methyl-3,5-dioxo-1,3,4,5-tetrahydro-1,4-methanobenzo[c]oxepin-10-yl)methyl)benzamide] | 2.92 | – | –
CC(C)(C)C(=O)Oc1cccc2c1C(=O)[C@@H]1C(=O)O[C@@]2(C)[C@H]1Cc1c(OC(=O)C(C)(C)C)c(OC(=O)C(C)(C)C)c(C#N)c(OC(=O)C(C)(C)C)c1OC(=O)C(C)(C)C [Compound I-5] | – | stronger protective actions | –
C[C@@H]1c2cccc(O)c2C(=O)C[C@@H]1CC1=C(O)C(=O)C(C(N)=O)=C(O)C1=O [Compound Ia-3, 2,5-dihydroxy-4-(((1S,2S)-5-hydroxy-1-methyl-4-oxo-1,2,3,4-tetrahydronaphthalen-2-yl)methyl)-3,6-dioxocyclohexa-1,4-dienecarboxamide] | 3.00 | – | –
CN(C)c1ccc(O)c2c1C[C@@H](CC1=C(O)C(=O)C(C(N)=O)=C(O)C1=O)CC2=O [Compound I-3, (S)-4-((8-(dimethylamino)-5-hydroxy-4-oxo-1,2,3,4-tetrahydronaphthalen-2-yl)methyl)-2,5-dihydroxy-3,6-dioxocyclohexa-1,4-dienecarboxamide] | 1.22 | – | –
C[C@@]12OC(=O)[C@@H](C(=O)c3c(O)ccc(Cl)c31)[C@@H]2CC1=C(O)C(=O)C(C(N)=O)=C(O)C1=O [Compound Ia-1, 4-(((1S,4R,10S)-9-chloro-6-hydroxy-1-methyl-3,5-dioxo-1,3,4,5-tetrahydro-1,4-methanobenzo[c]oxepin-10-yl)methyl)-2,5-dihydro-3,6-dioxohexa-1,4-dienecarboxamide] | 1.66 | – | –
CC(=O)Oc1cccc2c1C(=O)[C@@H]1C(=O)O[C@@]2(C)[C@H]1Cc1c(OC(C)=O)c(OC(C)=O)c(C(N)=O)c(OC(C)=O)c1OC(C)=O [Compound I-4, 3-(((1S,4R,10S)-6-acetoxy-1-methyl-3,5-dioxo-1,3,4,5-tetrahydro-1,4-methanobenzo[c]oxepin-10-yl)methyl)-6-carbamoyl benzene-1,2,4,5-tetraryl tetraacetate] | – | stronger protective actions | –
C[C@@]12OC(=O)[C@@H](C(=O)c3c(O)cccc31)[C@@H]2CC1=C(O)C(=O)C(C#N)=C(O)C1=O [Compound Ia-4, 2,5-dihydroxy-4-(((1S,4R,10S)-6-hydroxy-1-methyl-3,5-dioxo-1,3,4,5-tetrahydro-1,4-methanobenzo[c]oxepin-10-yl)methyl)-3,6-dioxocyclohexa-1,4-dienocarbonitrile] | 1.59 | – | –
C[C@@]12OC(=O)[C@@H](C(=O)c3c(O)ccc(Cl)c31)[C@@H]2Cc1c(O)c(O)c(C(N)=O)c(O)c1O [Compound Ia-2, 4-(((1S,4R,10S)-9-chloro-6-hydroxy-1-methyl-3,5-dioxo-1,3,4,5-tetrahydro-1,4-methanobenzo[c]oxepin-10-yl)methyl)-2,3,5,6-tetrahydroxybenzamide] | 1.50 | – | –
C[C@@]12OC(=O)[C@@H](C(=O)c3c(OC(=O)c4ccccc4)cccc31)[C@@H]2Cc1c(OC(=O)c2ccccc2)c(OC(=O)c2ccccc2)c(C(N)=O)c(OC(=O)c2ccccc2)c1OC(=O)c1ccccc1 [Compound I-6, 3-(((1S,4R,10S)-6-(benzoyloxy)-1-methyl-3,5-dioxo-1,3,4,5-tetrahydro-1,4-methanobenzo[c]oxepin-10-yl)methyl)-6-carbamoyl benzene-1,2,4,5-tetraryl tetrabenzoate)] | – | stronger protective actions | –
C[C@@]12OC(=O)[C@@H](C(=O)c3c(O)cccc31)[C@@H]2CC1=C(O)C(=O)C(C(N)=O)=C(O)C1=O [Compound I-1, 2,5-dihydroxy-4-(((1S,4R,10S)-6-hydroxy-1-methyl-3,5-dioxo-1,3,4,5-tetrahydro-1,4-methanobenzo[c]oxepin-10-yl)methyl)-3,6-dioxocyclohexa-1,4-dienocarboxamide] | 2.96 | protected PC12 cells, to no small extent | deaths of animals during the test period [2]: not seen; average brain injury rate, lower than the control group ([2]; one day after cerebral ischemia, total brain injury rate P<0.05, cerebral cortex injury rate P<0.01): about 25%; concentration needed to inhibit mPTP-opening compared with cyclosporine A (FIG. 2) ([1]; dose response of CRC/CRC(DMSO), FIG. 2): at a lower concentration than cyclosporine A
